The experiment deals with ATP-binding cassette sub-family C member 9 (Rattus norvegicus) (UniProt Q63563). The experiment is described as follows: […] of SUR2A/kir6.2 channel in Wistar rat thoracic aorta assessed as relaxation of Kcl-induced contraction. In kind it is tissue-based.
ATP-binding cassette sub-family C member 9 (Rattus norvegicus), sequence (Q63563 whole entry): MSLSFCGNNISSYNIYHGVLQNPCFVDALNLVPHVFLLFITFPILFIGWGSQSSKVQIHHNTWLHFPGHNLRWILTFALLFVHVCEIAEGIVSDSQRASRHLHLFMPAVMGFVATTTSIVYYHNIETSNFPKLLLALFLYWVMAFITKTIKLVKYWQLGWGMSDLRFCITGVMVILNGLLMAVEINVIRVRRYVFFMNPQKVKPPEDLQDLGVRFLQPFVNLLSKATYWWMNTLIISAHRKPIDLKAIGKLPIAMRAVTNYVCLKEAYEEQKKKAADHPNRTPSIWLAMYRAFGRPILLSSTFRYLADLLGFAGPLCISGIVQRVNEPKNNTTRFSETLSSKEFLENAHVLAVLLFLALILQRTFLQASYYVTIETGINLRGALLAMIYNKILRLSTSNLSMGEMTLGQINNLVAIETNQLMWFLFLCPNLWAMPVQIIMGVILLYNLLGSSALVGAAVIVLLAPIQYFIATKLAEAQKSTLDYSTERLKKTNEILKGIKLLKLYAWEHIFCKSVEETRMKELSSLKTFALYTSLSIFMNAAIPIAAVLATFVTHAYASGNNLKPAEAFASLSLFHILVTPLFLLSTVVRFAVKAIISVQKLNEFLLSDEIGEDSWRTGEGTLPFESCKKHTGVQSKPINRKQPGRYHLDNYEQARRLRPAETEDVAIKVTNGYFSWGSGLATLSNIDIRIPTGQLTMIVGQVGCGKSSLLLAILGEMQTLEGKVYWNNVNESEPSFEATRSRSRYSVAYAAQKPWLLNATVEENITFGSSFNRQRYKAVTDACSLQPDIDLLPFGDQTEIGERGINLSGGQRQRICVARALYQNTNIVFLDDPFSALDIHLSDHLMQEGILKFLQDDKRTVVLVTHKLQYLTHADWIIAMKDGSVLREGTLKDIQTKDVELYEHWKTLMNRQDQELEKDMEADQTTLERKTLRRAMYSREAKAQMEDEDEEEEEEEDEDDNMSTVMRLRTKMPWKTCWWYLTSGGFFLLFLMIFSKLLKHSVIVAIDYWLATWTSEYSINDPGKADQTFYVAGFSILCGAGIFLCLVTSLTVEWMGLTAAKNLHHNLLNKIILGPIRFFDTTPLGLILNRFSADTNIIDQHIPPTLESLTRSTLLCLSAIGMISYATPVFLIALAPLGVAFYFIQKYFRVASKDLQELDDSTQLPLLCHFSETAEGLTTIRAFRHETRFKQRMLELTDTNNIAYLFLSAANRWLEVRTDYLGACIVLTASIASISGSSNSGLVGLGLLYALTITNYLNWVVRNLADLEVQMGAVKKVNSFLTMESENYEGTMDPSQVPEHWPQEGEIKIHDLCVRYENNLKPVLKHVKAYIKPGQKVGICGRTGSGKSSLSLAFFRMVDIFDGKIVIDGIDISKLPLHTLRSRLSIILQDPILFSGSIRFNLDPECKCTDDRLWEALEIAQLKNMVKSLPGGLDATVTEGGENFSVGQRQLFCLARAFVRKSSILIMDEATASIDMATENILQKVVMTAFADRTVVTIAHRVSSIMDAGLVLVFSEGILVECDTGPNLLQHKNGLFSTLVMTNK
In the case of `CC1(C)CC(NC(=S)NCc2ccccc2)c2cc(Br)ccc2O1` (configuration not stated), the pED50 came out at 4.61. To `CC(C)NC(=O)NC1CC(C)(C)Oc2ccc(Br)cc21` (configuration not stated) belongs less than 3.52; to `CCNC(=S)NC1CC(C)(C)Oc2ccc(Br)cc21` (configuration not stated), 5.43. With `CC(=O)NC1CC(C)(C)Oc2ccc(Cl)cc21` (configuration not stated), the pED50 was 5.18. To `CC1(C)CC(NC(=O)NCc2ccccc2)c2cc(Br)ccc2O1` (configuration not stated) belongs less than 3.52; to `Cc1ccc(S(=O)(=O)NC(=O)NC2CC(C)(C)Oc3ccc(Cl)cc32)cc1` (configuration not stated), 4.2; to `CC1(C)CC(NC(=S)NCc2ccccc2)c2cc(F)ccc2O1` (configuration not stated), 5.37.

As for `CCNC(=O)NC1CC(C)(C)Oc2ccc(Br)cc21` (configuration not stated), the pED50 amounted to 5.12. The same measure for `CCOC(=O)NC1CC(C)(C)Oc2ccc(F)cc21` (configuration not stated): 4.14; for `CCNC(=O)NC1CC(C)(C)Oc2ccc(Cl)cc21` (configuration not stated): 5.17.

As to `CC(=O)NC1CC(C)(C)Oc2ccc(F)cc21` (configuration not stated), the pED50 was 4.33. The same measure for `CC(=O)NC1CC(C)(C)Oc2ccc(Br)cc21` (configuration not stated): 5.19. `CC(C)NC(=O)NC1CC(C)(C)Oc2ccc(Cl)cc21` (configuration not stated): the pED50 stood at 3.84. To `CC1(C)Oc2ccc(C#N)cc2C(N2CCCC2=O)C1O` (racemic) belongs 6.89; to `CCOC(=O)NC1CC(C)(C)Oc2ccc(Br)cc21` (configuration not stated), 4.59; to `CCNC(=S)NC1CC(C)(C)Oc2ccc(F)cc21` (configuration not stated), 4.75. As for `CCNC(=S)NC1CC(C)(C)Oc2ccc(Cl)cc21` (configuration not stated), the pED50 came to 5.09. To `CC1(C)CC(NC(=O)NS(=O)(=O)c2ccc(Cl)cc2)c2cc(Cl)ccc2O1` (configuration not stated) belongs 4.29. The same measure for `CC(C)NC(=O)NC1CC(C)(C)Oc2ccc(F)cc21` (configuration not stated): 3.96. As to `CC(C)NC(=S)NC1CC(C)(C)Oc2ccc(Br)cc21` (configuration not stated), the pED50 worked out at 5.06. To `CC1(C)CC(NC(=O)NCc2ccccc2)c2cc(Cl)ccc2O1` (configuration not stated) belongs 4.82; to `CC(C)NC(=S)NC1CC(C)(C)Oc2ccc(Cl)cc21` (configuration not stated), 4.96; to `CCNC(=O)NC1CC(C)(C)Oc2ccc(F)cc21` (configuration not stated), 4.37. For `CC1(C)CC(NC(=S)NCc2ccccc2)c2cc(Cl)ccc2O1` (configuration not stated), the pED50 amounted to 4.7. On to `CC(C)NC(=S)NC1CC(C)(C)Oc2ccc(F)cc21` (configuration not stated), for which the pED50 amounted to 4.73.

As for `CCOC(=O)NC1CC(C)(C)Oc2ccc(Cl)cc21` (configuration not stated), the pED50 was 4.42.

For the compound `CC1(C)CC(NC(=O)NS(=O)(=O)c2ccccc2)c2cc(Cl)ccc2O1` (configuration not stated), the pED50 was found to be 3.68.

For the origin of these results see ChEMBL document CHEMBL1154467, “QSAR study about ATP-sensitive potassium channel activation of cromakalim analogues using CP-MLR approach” (Eur J Med Chem, 2008).
